Data on three molecules can be found in article PMC6982127, “GTP Binding Is Necessary for the Activation of a Toxic Mutant Isoform of the Essential GTPase ObgE” (International Journal of Molecular Sciences, 2019).

Holding throughout (assay): isothermal titration calorimetry
Common to all, as to format: binding
(In ITC the heat of successive injections is recorded.)

The target in assay [1] is T1, ObgE (Escherichia coli, UniProt P42641, E265K).
T1 construct: full-length ObgE, N-terminal His6 tag (pET28a-obgE), expressed in E. coli BL21(DE3) pLysS, Ni-NTA and size exclusion, made nucleotide-free by alkaline phosphatase
The text has this:
(§1) isothermal titration calorimetry on ObgE

Assay [2] addresses T2, ObgE (Escherichia coli, UniProt P42641, T174I).
T2 construct: full-length ObgE, N-terminal His6 tag (pET28a-obgE), expressed in E. coli BL21(DE3) pLysS, Ni-NTA and size exclusion, made nucleotide-free by alkaline phosphatase
Source text: as §1

For assay [3], the target named is T3, ObgE (Escherichia coli, UniProt P42641, H234R).
T3 construct: full-length ObgE, N-terminal His6 tag (pET28a-obgE), expressed in E. coli BL21(DE3) pLysS, Ni-NTA and size exclusion, made nucleotide-free by alkaline phosphatase
Source text: as §1

In assay [4] the target is T4, ObgE (Escherichia coli, UniProt P42641, DEL153-156).
T4 construct: full-length ObgE, N-terminal His6 tag (pET28a-obgE), expressed in E. coli BL21(DE3) pLysS, Ni-NTA and size exclusion, made nucleotide-free by alkaline phosphatase
Source text: as §1

[5] abbreviates: read-out: Equilibrium Dissociation Constants / KD(GDP).
The mark [6] stands for this setting: read-out: Equilibrium Dissociation Constants / KD(GTPγS).
The mark [7] stands for this setting: read-out: Equilibrium Dissociation Constants / KD(ppGpp).

SMILES strings stand for the structures. Read-outs that look alike come from different tables or passages of the source.

T3 sequence (P42641 whole entry H234R): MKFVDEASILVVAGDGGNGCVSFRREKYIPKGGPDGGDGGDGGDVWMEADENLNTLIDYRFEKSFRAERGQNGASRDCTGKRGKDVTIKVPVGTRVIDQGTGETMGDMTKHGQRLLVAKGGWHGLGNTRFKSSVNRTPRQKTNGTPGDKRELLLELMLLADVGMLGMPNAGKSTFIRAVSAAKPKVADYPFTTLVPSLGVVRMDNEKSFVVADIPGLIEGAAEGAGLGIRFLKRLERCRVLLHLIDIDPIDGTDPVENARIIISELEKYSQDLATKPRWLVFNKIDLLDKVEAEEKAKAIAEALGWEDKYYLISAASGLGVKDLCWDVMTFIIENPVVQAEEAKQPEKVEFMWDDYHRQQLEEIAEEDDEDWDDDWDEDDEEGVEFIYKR
T4 sequence (P42641 with tags, fused parts or gaps DEL153-156): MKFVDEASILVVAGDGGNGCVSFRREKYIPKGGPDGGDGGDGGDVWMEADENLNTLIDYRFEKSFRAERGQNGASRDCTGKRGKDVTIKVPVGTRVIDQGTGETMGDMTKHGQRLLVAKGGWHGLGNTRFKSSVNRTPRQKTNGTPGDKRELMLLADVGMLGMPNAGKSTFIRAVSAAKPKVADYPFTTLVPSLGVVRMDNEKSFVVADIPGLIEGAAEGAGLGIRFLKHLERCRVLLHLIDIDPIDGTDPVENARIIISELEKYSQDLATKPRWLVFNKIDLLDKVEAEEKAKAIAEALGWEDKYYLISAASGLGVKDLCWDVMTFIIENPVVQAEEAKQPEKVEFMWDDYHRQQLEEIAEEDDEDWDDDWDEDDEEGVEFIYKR
T1 sequence (P42641 whole entry E265K): as the sequence (P42641 whole entry H234R) above, with R234H, E265K counted along it
T2 sequence (P42641 whole entry T174I): as the sequence (P42641 whole entry H234R) above, with T174I, R234H counted along it

On to `Nc1nc2c(ncn2[C@@H]2O[C@H](COP(=O)(O)OP(=O)(O)O)[C@@H](O)[C@H]2O)c(=O)[nH]1` [GDP], for which the Kd came out at 250 ± 30 nM on ObgE [1] (setting [5]), 115000 ± 2000 nM at ObgE [2] (setting [5]), 430 ± 50 nM at ObgE [3] (setting [5]) and 600 ± 50 nM on ObgE [4] (setting [5]).
As to `Nc1nc2c(ncn2[C@@H]2O[C@H](COP(=O)(O)OP(=O)(O)OP(O)(O)=S)[C@@H](O)[C@H]2O)c(=O)[nH]1` [GTPγS], the Kd was found to be 5700 ± 800 nM on ObgE [1] (setting [6]), 160000 ± 11000 nM on ObgE [2] (setting [6]), 3700 ± 500 nM on ObgE [3] (setting [6]) and 3400 ± 500 nM at ObgE [4] (setting [6]).
`Nc1nc2c(ncn2[C@@H]2O[C@H](COP(=O)(O)OP(=O)(O)O)[C@@H](OP(=O)(O)OP(=O)(O)O)[C@H]2O)c(=O)[nH]1` [ppGpp]: the Kd at ObgE [1] (setting [7]) is 310 ± 30 nM; on ObgE [2] (setting [7]) it was 81000 ± 3000 nM; on ObgE [3] (setting [7]), 600 ± 60 nM; on ObgE [4] (setting [7]), 640 ± 60 nM.
